According to patent US6545155B2, “Fused heteroaromatic glucokinase activators” (Hoffmann-La Roche Inc., priority 2000, dated 2003):

The molecules below were run on C57BL/6J mice (assay: Glucokinase activator in vivo screen protocol (blood glucose after oral dosing)). Conditions: administered orally, 50 mg/kg, C57BL/6J mice fasted two hours, blood glucose vs vehicle over six hours post dose.
Experimental: (Glucokinase Activator in Vivo Screen Protocol
C57BL/6J mice are orally dosed via gavage with Glucokinase (GK) activator at 50 mg/kg body weight following a two hour fasting period. Blood glucose determinations are made five times during the six hour post-dose study period.
Mice (n=6) are weighed and fasted for a two hour period prior to oral treatment. GK activators are formulated at 6.76 mg/ml in Gelucire vehicle (Ethanol:Gelucire44/14:PEG400q.s. 4:66:30 v/w/v. Mice are dosed orally with 7.5 μL formulation per gram of body weight to equal a 50 mg/kg dose. Immediately prior to dosing, a pre dose (time zero) blood glucose reading is acquired by snipping off a small portion of the animals tail (˜1 mm) and collecting 15 μL blood into a heparinized capillary tube for analysis. Following GK activator administration, additional blood glucose readings are taken at 1, 2, 4, and 6 hours post dose from the same tail wound. Results are interpreted by comparing the mean blood glucose values of six vehicle treated mice with six GK activator treated mice over the six hour study duration.
CS(=O)(=O)c1ccc([C@@H](CC2CCCC2)C(=O)Nc2nc3ccccc3s2)cc1Cl [Example 19, N-Benzothiazol-2-yl-2(R)-(3-chloro-4-methanesulfonyl-phenyl)-3-cyclopentyl-propionamide] was tested, and the “glucokinase activator in vivo activity” value was “excellent glucokinase activator in vivo activity”.
In the case of CS(=O)(=O)c1ccc(C(CC2CCCC2)C(=O)Nc2nc3ccccc3[nH]2)cc1Cl (stereo not drawn) [Example 20, N-(1H-Benzoimidazol-2-yl)-2-(3-chloro-4-methanesulfonyl-phenyl)-3-cyclopentyl-propionamide], the “glucokinase activator in vivo activity” value is reported as “excellent glucokinase activator in vivo activity”.
In the case of CS(=O)(=O)c1ccc(C(CC2CCCC2)C(=O)Nc2ccc3ccccc3n2)cc1Cl (stereo not drawn) [Example 22, 2-(3-Chloro-4-methanesulfonyl-phenyl)-3-cyclopentyl-N-quinolin-2-yl-propionamide], the “glucokinase activator in vivo activity” value is reported as “excellent glucokinase activator in vivo activity”.
